Read-outs that look alike come from different tables or passages of the source. Marks after values point to notes of the source that are not given here.
Experiments:
MethA fibrosarcoma = conditions: for percent inhibition relative to the control values of group 1, Day 21 / percent inhibition relative to the control values of group 1, Day 28: + means increase; for Effect on tumor growth (antitumoral / antiproliferative), in words: MethA fibrosarcoma model, 3-100 mg/kg once weekly i.p.; for Tumor volume Day 21 / Tumor volume Day 28: median of 10 animals, once weekly i.p.
Text: The substances, 5-fluoro-2′-deoxyuridine-5′-phosphoric acid-(3-dodecyl-thio-2-decyloxy)propylester (substance A) and 3′-azido-3′-deoxythymidine-5′-phosphoric acid-(3-dodecylthio-2-decyloxy)propylester (substance B), have been tested in the murine MethA fibrosarcoma model, amongst other tests, under in-vivo conditions for their antitumoral or antiproliferative potency and efficacy.
MethA fibrosarcoma cells were propagated intraperitoneal (i.p.) in the form of ascites tumor in female CB6F1 mice (Charles River Laboratories, Sulzfeld, Germany). For the entire duration of the tests, the animals were kept in macrolon cages under laminar flow conditions at 23±1° C. room temperature, 55±15% relative humidity and a light-dark cycle of 12 h each. […] Prior to enrolment in the corresponding experiment, the animals were accustomed to the conditions for at least 14 days. The animals were routinely checked for infection by murine viruses.
To test the active substance, female CB6F1 mice 6-8 weeks of age were inoculated with 1×10^5 MethA fibrosarcoma cells per mouse by the subcutaneous (s.c.) route. The tumor growth in control group mice and in animals of the verum-treated groups was determined regularly in weekly intervals by measuring the two perpendicular tumor diameters as described in Hermann D. B. J., Pahlke W., Opitz H.-G. and Bicker U., Cancer Treatment Reviews, 17, 247-252, 1990. The test substances were tested in a dose-dependent fashion with once weekly i.p. administration in phosphate-buffered saline (PBS). Animals in the control group were treated with placebo (PBS).
Tumor volumes on days 21 and 28 after tumor cell inoculation are expressed as medians of 10 animals per experimental group.

[1] = for Blood levels: HB / Blood levels: HCT / Blood levels: MCH / Blood levels: MCHC / Blood levels: MCV / Blood levels: PLT / Blood levels: RBC / Blood levels: WBC / Organ weight: Brain / Organ weight: Colon / Organ weight: Heart / Organ weight: Intestines / Organ weight: Kidney / Organ weight: Liver / Organ weight: Lungs / Organ weight: Ovaries / Organ weight: Spleen / Organ weight: Stomach / Bone marrow cell count: mean ± SEM; for Bone marrow cell count: 10 animals; for Body weight: median
Method: Substance A was tested in female NMRI mice for its tolerability. The animals were kept under the same conditions as described in Example 1.
Female NMRI mice, 6-8 weeks of age (Charles River Laboratories, Sulzfeld, Germany), were treated with 1 or 1.5 g/kg of substance A administered by an esophageal probe. Subsequently, the following toxicity parameters were determined: • Blood counts, including white blood cell concentration (WBC), red blood cells concentration (RBC), hemoglobin (HB), hematocrit (HCT), platelet concentration (PLT), mean corpuscular volume (MCV), mean corpuscular hemoglobin (MCH) and mean corpuscular hemoglobin concentration (MCHC), • Bone marrow cell count, i.e. number of bone marrow cells per femur (M/femur), • Body weight • Organ weights, including weight of colon, heart, brain, intestines, lungs, liver, stomach, spleen, kidneys, ovaries.

K562 cells = assay: Proliferation experiments with combinations, WST-1 colorimetry; type: cell-based; conditions: for reduction of the IC50 value of the combination partner in combination with substance A: substance A at a concentration just short of an antiproliferative effect
Method: The effect of the combination containing substance A and cisplatin, doxorubicin, vincristine, and camptothecin, was tested in proliferation experiments. For this purpose, substance A was dissolved in medium at a stock concentration of 1 mg/ml. The other substances were dissolved in water or DMSO (dimethylsulfoxide) at the same stock concentration of 1 mg/ml. The series' of experiments were performed in 96-well plates. […] Cells in the absence of substance and pure medium served as the controls. The in-vitro activity of the test substances was determined by colorimetry on the basis of cleavage of the tetrazolium salt, WST-1 (Roche Molecular Biochemicals, Mannheim, Del.). For this purpose, the cultures were incubated with 10 μl WST for 4 hours. Then the plates were shaken gently. The optical density was measured with an ELISA reader (Spectra MAX 340PC, Molecular Devices, Ismaning, Del.) at wavelengths from 440 to 650 nm. The IC50 value was determined for each substance. In the case of the combination, one of the substances was used at a concentration just short of showing an antiproliferative effect and the IC50 value of the combination was then determined after the addition of the second substance.

[2] = 3 mg/kg/application, day 21 after tumor cell inoculation
[3] = very high dosage (1 or 1.5 g/kg)
[4] = partner at a concentration just short of an antiproliferative effect

For `CCCCCCCCCCCCSCC(COP(=O)(O)OC[C@H]1O[C@@H](n2cc(F)c(=O)[nH]c2=O)C[C@@H]1O)OCCCCCCCCCC` (some centres unmarked) [Substance A, 5-fluoro-2′-deoxyuridine-5′-phosphoric acid-(3-dodecyl-thio-2-decyloxy)propylester], the “percent inhibition relative to the control values of group 1, Day 21” value (MethA fibrosarcoma; 3 mg/kg/application, day 21) was 59.1%, the “percent inhibition relative to the control values of group 1, Day 28” value (MethA fibrosarcoma; 3 mg/kg/application) was 57.6% and the “percent inhibition relative to the control values of group 1, Day 21” value (MethA fibrosarcoma; 30 mg/kg/application, day 21) was 89.7%. The “percent inhibition relative to the control values of group 1, Day 28” value (MethA fibrosarcoma; 30 mg/kg/application) was 87.2%, the “percent inhibition relative to the control values of group 1, Day 21” value (MethA fibrosarcoma; 100 mg/kg/application, day 21) was 91.1% and the “percent inhibition relative to the control values of group 1, Day 28” value (MethA fibrosarcoma; 100 mg/kg/application) was 92.2%. For the same compound, the “Effect on tumor growth (antitumoral / antiproliferative), in words” value (MethA fibrosarcoma) was “inhibits tumor growth highly significantly and in a dose- and time-dependent fashion”, the “Tumor volume Day 21” value (MethA fibrosarcoma; [2]) was 1.649 mm^3 and the “Tumor volume Day 28” value (MethA fibrosarcoma; 3 mg/kg/application) was 4.163 mm^3. The “Tumor volume Day 21” value (MethA fibrosarcoma; 30 mg/kg/application, day 21) was 416 mm^3, the “Tumor volume Day 28” value (MethA fibrosarcoma; 30 mg/kg/application) was 1.254 mm^3 and the “Tumor volume Day 21” value (MethA fibrosarcoma; 100 mg/kg/application, day 21) was 357 mm^3. For the same compound, the “Tumor volume Day 28” value (MethA fibrosarcoma; 100 mg/kg/application) was 762 mm^3, the “Blood levels: HB” value ([1]; 1 g/kg) was 17850 ± 390 µg/mL and the “Blood levels: HCT” value ([1]; 1 g/kg) was 47.93 ± 1.16%. For the same compound, the “Blood levels: MCH” value ([1]; 1 g/kg) was 19.28 ± 0.22 pg, the “Blood levels: MCHC” value ([1]; 1 g/kg) was 37.29 ± 0.44 g/dL and the “Blood levels: MCV” value ([1]; 1 g/kg) was 51.50 ± 0.58 fL. The “Blood levels: PLT” value ([1]; 1 g/kg) was 1153 ± 41 k/μl, the “Blood levels: RBC” value ([1]; 1 g/kg) was 9.31 ± 0.23 M/μl and the “Blood levels: WBC” value ([1]; 1 g/kg) was 14.34 ± 2.18 k/μl. The “Organ weight: Brain” value ([1]; 1 g/kg) was 399 ± 8 g, the “Organ weight: Colon” value ([1]; 1 g/kg) was 373 ± 15 g and the “Organ weight: Heart” value ([1]; 1 g/kg) was 133 ± 4 g. The “Organ weight: Intestines” value ([1]; 1 g/kg) was 1.622 ± 61 g, the “Organ weight: Kidney” value ([1]; 1 g/kg) was 361 ± 17 g and the “Organ weight: Liver” value ([1]; 1 g/kg) was 1.602 ± 42 g. The “Organ weight: Lungs” value ([1]; 1 g/kg) was 226 ± 9 g, the “Organ weight: Ovaries” value ([1]; 1 g/kg) was 183 ± 17 g and the “Organ weight: Spleen” value ([1]; 1 g/kg) was 125 ± 9 g. The “Organ weight: Stomach” value ([1]; 1 g/kg) was 232 ± 7 g, the “Bone marrow cell count” value ([1]; 1 g/kg) was 28.48 ± 0.86 M/Femur and the Body weight ([1]; 1 g/kg) was 28.7^c g. For the same compound, the “Tolerability parameters compared to the placebo-treated control group, in words” value ([1]; 1 or 1.5 g/kg of body weight) was “no significant reduction in the tolerability parameters”, the “Blood levels: HB” value ([1]; 1.5 g/kg) was 15790 ± 920 µg/mL and the “Blood levels: HCT” value ([1]; 1.5 g/kg) was 43.42 ± 2.77%. The “Blood levels: MCH” value ([1]; 1.5 g/kg) was 19.09 ± 0.37 pg, the “Blood levels: MCHC” value ([1]; 1.5 g/kg) was 36.53 ± 0.38 g/dL and the “Blood levels: MCV” value ([1]; 1.5 g/kg) was 52.09 ± 0.81 fL. The “Blood levels: PLT” value ([1]; 1.5 g/kg) was 1431 ± 172 k/μl, the “Blood levels: RBC” value ([1]; 1.5 g/kg) was 8.34 ± 0.56 M/μl and the “Blood levels: WBC” value ([1]; 1.5 g/kg) was 16.97 ± 6.05 k/μl. The “Organ weight: Brain” value ([1]; 1.5 g/kg) was 387 ± 18 g, the “Organ weight: Colon” value ([1]; 1.5 g/kg) was 392 ± 29 g and the “Organ weight: Heart” value ([1]; 1.5 g/kg) was 126 ± 9 g. For the same compound, the “Organ weight: Intestines” value ([1]; 1.5 g/kg) was 1.807 ± 112 g, the “Organ weight: Kidney” value ([1]; 1.5 g/kg) was 351 ± 26 g and the “Organ weight: Liver” value ([1]; 1.5 g/kg) was 1.739 ± 81 g. The “Organ weight: Lungs” value ([1]; 1.5 g/kg) was 206 ± 9 g, the “Organ weight: Ovaries” value ([1]; 1.5 g/kg) was 203 ± 33 g and the “Organ weight: Spleen” value ([1]; 1.5 g/kg) was 204 ± 26 g. The “Organ weight: Stomach” value ([1]; 1.5 g/kg) was 232 ± 16 g, the “Bone marrow cell count” value ([1]; 1.5 g/kg) was 31.44 ± 1.51 M/Femur and the Body weight ([1]; 1.5 g/kg) was 27.9^c g. For the same compound, the “Bone marrow suppression, hematotoxicity or unspecific-toxic organ intolerance, in words” value [1, 3] was “no evidence of bone marrow suppression, hematotoxicity or unspecific-toxic organ intolerance”, the “Unspecific-toxic properties under in-vivo conditions, in words” value [1, 3] was “no unspecific-toxic properties” and the “reduction of the IC50 value of substance A in combination with camptothecin” value (K562 cells; [4]) was “approx. 40%”. The “reduction of the IC50 value of substance A in combination with cisplatin” value (K562 cells; [4]) was 25%, the “reduction of the IC50 value of substance A in combination with doxorubicin” value (K562 cells; [4]) was “approx. 30%” and the “reduction of the IC50 value of substance A in combination with vincristine” value (K562 cells; [4]) was “approx. 60%”.
For `CCCCCCCCCCCCSCC(COP(=O)(O)OC[C@H]1O[C@@H](n2cc(C)c(=O)[nH]c2=O)C[C@@H]1N=[N+]=[N-])OCCCCCCCCCC` (some centres unmarked) [Substance B, 3′-azido-3′-deoxythymidine-5′-phosphoric acid-(3-dodecylthio-2-decyloxy)propylester, reference compound], the “percent inhibition relative to the control values of group 1, Day 21” value (MethA fibrosarcoma; 3 mg/kg/application, day 21) was 0.8%, the “percent inhibition relative to the control values of group 1, Day 28” value (MethA fibrosarcoma; 3 mg/kg/application) was “+4.1%” and the “percent inhibition relative to the control values of group 1, Day 21” value (MethA fibrosarcoma; 30 mg/kg/application, day 21) was “+1.7%”. For the same compound, the “percent inhibition relative to the control values of group 1, Day 28” value (MethA fibrosarcoma; 30 mg/kg/application) was “+1.4%”, the “percent inhibition relative to the control values of group 1, Day 21” value (MethA fibrosarcoma; 100 mg/kg/application, day 21) was 0.3% and the “percent inhibition relative to the control values of group 1, Day 28” value (MethA fibrosarcoma; 100 mg/kg/application) was “+2.8%”. The “Effect on tumor growth (antitumoral / antiproliferative), in words” value (MethA fibrosarcoma) was “no antitumoral or antiproliferative properties”, the “Tumor volume Day 21” value (MethA fibrosarcoma; [2]) was 3.998 mm^3 and the “Tumor volume Day 28” value (MethA fibrosarcoma; 3 mg/kg/application) was 10.228 mm^3. For the same compound, the “Tumor volume Day 21” value (MethA fibrosarcoma; 30 mg/kg/application, day 21) was 4.102 mm^3, the “Tumor volume Day 28” value (MethA fibrosarcoma; 30 mg/kg/application) was 9.963 mm^3 and the “Tumor volume Day 21” value (MethA fibrosarcoma; 100 mg/kg/application, day 21) was 4.021 mm^3. For the same compound, the “Tumor volume Day 28” value (MethA fibrosarcoma; 100 mg/kg/application) was 10.098 mm^3.
With `CC[C@@]1(O)C(=O)OCc2c1cc1n(c2=O)Cc2cc3ccccc3nc2-1` [camptothecin, reference compound] the “reduction of the IC50 value of the combination partner in combination with substance A” value (shortened to “reduction of the IC50 value … with substance A”) (K562 cells) was “approx. 90%”.
With `N.N.[Cl][Pt][Cl]` [cisplatin, reference compound] the “reduction of the IC50 value … with substance A” value (K562 cells) was 50%.
With `COc1cccc2c1C(=O)c1c(O)c3c(c(O)c1C2=O)C[C@@](O)(C(=O)CO)C[C@@H]3O[C@H]1C[C@H](N)[C@H](O)[C@H](C)O1` [doxorubicin, reference compound] the “reduction of the IC50 value … with substance A” value (K562 cells) was “approx. 50%”.
With `CC[C@]1(O)C[C@H]2CN(CCc3c([nH]c4ccccc34)[C@@](C(=O)OC)(c3cc4c(cc3OC)N(C=O)[C@H]3[C@@](O)(C(=O)OC)[C@H](OC(C)=O)[C@]5(CC)C=CCN6CC[C@]43[C@@H]65)C2)C1` [vincristine, reference compound] the “reduction of the IC50 value … with substance A” value (K562 cells) was “approx. 65%”.
